The values that follow come from PubChem BioAssay AID210 (DTP/NCI, 2004).

In the test the test system is CD2F1 mice, ip Colon 26 adenocarcinoma, median survival T/C. Nature of the test: NCI In Vivo Anticancer Drug Screen. Data for tumor model Colon 26 Adenocarcinoma (intraperitoneal) in CD2F1 (CDF1) mice. The following applies: endpoint: median survival time, higher = longer survival. Here is the method:
The antitumor activity of compounds was measured in mice bearing transplantable tumors. Survival or tumor size were measured and the results are expressed as the measurement made in the treated group (T) divided by the measurement made in the vehicle treated control group (C). The tumor model used in this assay is Colon 26 Adenocarcinoma (intraperitoneal) in CD2F1 (CDF1) mice

[1] abbreviates: dose: 2.0 mg/kg/injection, schedule: Q01DX009 (ip), vehicle: acid diluted with saline.
[2] abbreviates: dose: 4.0 mg/kg/injection, schedule: Q01DX009 (ip), vehicle: acid diluted with saline.
The mark [3] stands for this setting: dose: 8.0 mg/kg/injection, schedule: Q01DX009 (ip), vehicle: acid diluted with saline.
Where [4] appears, read: dose: 16.0 mg/kg/injection, schedule: Q01DX009 (ip), vehicle: acid diluted with saline.
The mark [5] stands for this setting: dose: 1.5 mg/kg/injection, schedule: Q01DX009 (ip), vehicle: acid diluted with saline.
The mark [6] stands for this setting: dose: 3.0 mg/kg/injection, schedule: Q01DX009 (ip), vehicle: acid diluted with saline.
[7] abbreviates: dose: 6.0 mg/kg/injection, schedule: Q01DX009 (ip), vehicle: acid diluted with saline.
Where [8] appears, read: dose: 12.0 mg/kg/injection, schedule: Q01DX009 (ip), vehicle: acid diluted with saline.

Where “and” joins values, the source holds several entries; their conditions need not be identical. Equal values may be shown once. Inconclusive results and toxic doses are left out.

In the case of `CN(C)CCCNc1cccc2c1C(=O)c1c(NCCCN(C)C)cccc1C2=O`, the T/C is, setting by setting: (dose: 4.0 mg/kg/injection, schedule: Q01DX009 (ip), vehicle: saline) 111 % of control; (dose: 8.0 mg/kg/injection, schedule: Q01DX009 (ip), vehicle: saline) 97 % of control; (dose: 16.0 mg/kg/injection, schedule: Q01DX009 (ip), vehicle: saline) 95 % of control; (dose: 32.0 mg/kg/injection, schedule: Q01DX009 (ip), vehicle: saline) 89 % of control; (dose: 64.0 mg/kg/injection, schedule: Q01DX009 (ip), vehicle: saline) 87 % of control.
Regarding `CCC(=O)O[C@H]1CC[C@H]2[C@@H]3CCC4=CC(=O)CC[C@]4(C)[C@H]3CC[C@]12C`, the T/C is 87 % of control (dose: 80.0 mg/kg/injection, schedule: Q04DX003 (ip), vehicle: saline); 96 % of control (dose: 160.0 mg/kg/injection, schedule: Q04DX003 (ip), vehicle: saline); 86 % of control (dose: 640.0 mg/kg/injection, schedule: Q04DX003 (ip), vehicle: saline).
`CCCCCCCC(=O)[O][Hg][CH2]C1COC([CH2][Hg][O]C(=O)CCCCCCC)CO1` (stereo not given): the T/C (dose: 12.5 mg/kg/injection, schedule: Q04DX003 (ip), vehicle: saline with Tween-80) was 95 % of control and the T/C (dose: 25.0 mg/kg/injection, schedule: Q04DX003 (ip), vehicle: saline with Tween-80) was 90 % of control.
`CCCCCCCCCCCCCCCCS(=O)CC(O)COC(=O)c1ccc(C(=O)OCC(O)CS(=O)CCCCCCCCCCCCCCCC)cc1` (stereo not given): the T/C reads like this: (dose: 12.5 mg/kg/injection, schedule: Q04DX002 (ip), vehicle: saline + alcohol) 109 % of control; (dose: 25.0 mg/kg/injection, schedule: Q04DX002 (ip), vehicle: saline + alcohol) 100 % of control; (dose: 50.0 mg/kg/injection, schedule: Q04DX002 (ip), vehicle: saline + alcohol) 91 % of control; (dose: 100.0 mg/kg/injection, schedule: Q04DX002 (ip), vehicle: saline + alcohol) 91 % of control.
Regarding `O=C1C=CN(C2OC(CO)C(O)C2O)C(=O)C1` (stereo not given), the T/C is 109 % of control (dose: 25.0 mg/kg/injection, schedule: Q01DX005 (ip), vehicle: saline); 112 % of control (dose: 25.0 mg/kg/injection, schedule: Q04DX003 (ip), vehicle: saline); 102 % of control (dose: 50.0 mg/kg/injection, schedule: Q01DX005 (ip), vehicle: saline); 109 % of control (dose: 50.0 mg/kg/injection, schedule: Q04DX003 (ip), vehicle: saline); 98 % of control (dose: 100.0 mg/kg/injection, schedule: Q01DX005 (ip), vehicle: saline); 106 % of control (dose: 100.0 mg/kg/injection, schedule: Q04DX003 (ip), vehicle: saline). For the same molecule, the T/C by setting is: (dose: 200.0 mg/kg/injection, schedule: Q01DX005 (ip), vehicle: saline) 106 % of control; (dose: 200.0 mg/kg/injection, schedule: Q04DX003 (ip), vehicle: saline) 102 % of control; (dose: 400.0 mg/kg/injection, schedule: Q01DX005 (ip), vehicle: saline) 102 % of control; (dose: 400.0 mg/kg/injection, schedule: Q04DX003 (ip), vehicle: saline) 109 % of control.
With `O=C1c2ccccc2C(=O)c2c(NCCNCCO)ccc(O)c21`, the T/C (dose: 1.88 mg/kg/injection, schedule: Q01DX009 (ip), vehicle: acid diluted with saline) is 162 % of control; the T/C under setting [1] is 152 % of control; the T/C (dose: 3.75 mg/kg/injection, schedule: Q01DX009 (ip), vehicle: acid diluted with saline) was 177 % of control; the T/C under setting [2] is 212 % of control; the T/C (dose: 7.5 mg/kg/injection, schedule: Q01DX009 (ip), vehicle: acid diluted with saline) was 196 % of control; the T/C under setting [3] is 245 % of control. Also, the T/C is 182 % of control (dose: 15.0 mg/kg/injection, schedule: Q01DX009 (ip), vehicle: acid diluted with saline) and 263 % of control under setting [4].
Turning to `CCC[CH2][Hg][Cl]`, the T/C is 98 % of control (dose: 3.12 mg/kg/injection, schedule: Q04DX003 (ip), vehicle: Klucel (hydroxypropylcellulose) (HPC)) and 93 % of control (dose: 6.25 mg/kg/injection, schedule: Q04DX003 (ip), vehicle: Klucel (hydroxypropylcellulose) (HPC)).
Turning to `CC1(C)CC23C4COC(=O)C2CCC1C3CC4=O` (stereo not given), the T/C reads like this: (dose: 36.0 mg/kg/injection, schedule: Q04DX003 (ip), vehicle: DMSO) 99 % of control; (dose: 62.5 mg/kg/injection, schedule: Q04DX002 (ip), vehicle: saline with Tween-80) 109 % of control; (dose: 72.0 mg/kg/injection, schedule: Q04DX003 (ip), vehicle: DMSO) 93 % of control; (dose: 125.0 mg/kg/injection, schedule: Q04DX002 (ip), vehicle: saline with Tween-80) 91 % of control; (dose: 144.0 mg/kg/injection, schedule: Q04DX003 (ip), vehicle: DMSO) 94 % of control.
Consider `NCCNc1ccc(NCCN)c2c1C(=O)c1ccccc1C2=O`, for which the T/C under setting [5] was 171 % of control; the T/C under setting [1] is 164 % of control; the T/C under setting [6] was 263 % of control; the T/C under setting [2] was 175 % of control; the T/C under setting [7] is 254 % of control; the T/C under setting [3] is 213 % of control. The T/C runs as follows: under setting [8], 214 % of control; under setting [4], 227 % of control.
In the case of `C[C@]12CCC(=O)[C@@](C)(CO)[C@@H]1[C@H](O)C[C@H]1C[C@@H]3C[C@@]12CC[C@]3(O)CO`, the T/C (dose: 5.0 mg/kg/injection, schedule: Q04DX003 (ip), vehicle: saline with Tween-80) was 98 % of control; the T/C (dose: 10.0 mg/kg/injection, schedule: Q04DX003 (ip), vehicle: saline with Tween-80) was 96 % of control; the T/C (dose: 20.0 mg/kg/injection, schedule: Q04DX003 (ip), vehicle: saline with Tween-80) was 90 % of control; the T/C (dose: 40.0 mg/kg/injection, schedule: Q04DX003 (ip), vehicle: saline with Tween-80) is 90 % of control; the T/C (dose: 80.0 mg/kg/injection, schedule: Q04DX003 (ip), vehicle: saline with Tween-80) is 100 % of control.
For `O=C(O)CC(NC(=O)CP(=O)(O)O)C(=O)O` (stereo not given), the T/C is 119 % of control (dose: 108.0 mg/kg/injection, schedule: Q04DX003 (ip), vehicle: saline); 115 % of control (dose: 180.0 mg/kg/injection, schedule: Q04DX003 (ip), vehicle: saline); 161 % of control (dose: 180.0 mg/kg/injection, schedule: Q04DX003 (ip), vehicle: water); 106 % of control (dose: 300.0 mg/kg/injection, schedule: Q04DX003 (ip), vehicle: water); 187 % of control (dose: 833.0 mg/kg/injection, schedule: Q04DX003 (ip), vehicle: saline).
As to `C=CCCC(=O)CCCC(=O)O[C@@H]1[C@@H]2[C@H](CC1(C)C)[C@H](O)[C@@]13O[C@@H]1[C@H](O)[C@@]1(CO1)[C@@]23C`, the T/C runs as follows: (dose: 6.25 micrograms/kg/injection, schedule: Q04DX002 (ip), vehicle: Klucel (hydroxypropylcellulose) (HPC)) 123 % of control; (dose: 25.0 micrograms/kg/injection, schedule: Q04DX002 (ip), vehicle: Klucel (hydroxypropylcellulose) (HPC)) 119 % of control and 120 % of control; (dose: 50.0 micrograms/kg/injection, schedule: Q04DX002 (ip), vehicle: Klucel (hydroxypropylcellulose) (HPC)) 102 % of control and 98 % of control; (dose: 100.0 micrograms/kg/injection, schedule: Q04DX002 (ip), vehicle: Klucel (hydroxypropylcellulose) (HPC)) 117 % of control; (dose: 200.0 micrograms/kg/injection, schedule: Q04DX002 (ip), vehicle: Klucel (hydroxypropylcellulose) (HPC)) 120 % of control and 88 % of control; (dose: 400.0 micrograms/kg/injection, schedule: Q04DX002 (ip), vehicle: Klucel (hydroxypropylcellulose) (HPC)) 100 % of control.
As to `OCCN1CCN(CC/C=C2/c3ccccc3Sc3ccc(C(F)(F)F)cc32)CC1`, the T/C (dose: 3.13 mg/kg/injection, schedule: Q04DX003 (ip), vehicle: saline) is 98 % of control; the T/C (dose: 6.25 mg/kg/injection, schedule: Q04DX003 (ip), vehicle: saline) is 91 % of control; the T/C (dose: 12.5 mg/kg/injection, schedule: Q04DX003 (ip), vehicle: saline) was 91 % of control.
Take `CNCCNc1ccc(NCCNC)c2c1C(=O)c1ccccc1C2=O`: the T/C is 154 % of control (dose: 1.0 mg/kg/injection, schedule: Q01DX009 (ip), vehicle: acid diluted with saline); 205 % of control under setting [5]; 219 % of control under setting [1]; 236 % of control under setting [6]; 215 % of control under setting [2]; 226 % of control under setting [7]. Moreover, the T/C runs as follows: under setting [3], 225 % of control; under setting [8], 236 % of control; under setting [4], 115 % of control.
